Like-named read-outs stand apart in the source and are kept apart here.

Here are results for 16 compounds from patent US7763642B2 (Sterix Ltd., priority 2004, dated 2010).

The target of one assay is T1, aromatase (Homo sapiens, UniProt P11511).
T1 construct: Intact monolayers of JEG3 cells (2.5×10^6 cells) in triplicate 25 cm^2 tissue culture flasks; host or cells: JEG3 choriocarcinoma cells
T1 sequence (P11511 1-503): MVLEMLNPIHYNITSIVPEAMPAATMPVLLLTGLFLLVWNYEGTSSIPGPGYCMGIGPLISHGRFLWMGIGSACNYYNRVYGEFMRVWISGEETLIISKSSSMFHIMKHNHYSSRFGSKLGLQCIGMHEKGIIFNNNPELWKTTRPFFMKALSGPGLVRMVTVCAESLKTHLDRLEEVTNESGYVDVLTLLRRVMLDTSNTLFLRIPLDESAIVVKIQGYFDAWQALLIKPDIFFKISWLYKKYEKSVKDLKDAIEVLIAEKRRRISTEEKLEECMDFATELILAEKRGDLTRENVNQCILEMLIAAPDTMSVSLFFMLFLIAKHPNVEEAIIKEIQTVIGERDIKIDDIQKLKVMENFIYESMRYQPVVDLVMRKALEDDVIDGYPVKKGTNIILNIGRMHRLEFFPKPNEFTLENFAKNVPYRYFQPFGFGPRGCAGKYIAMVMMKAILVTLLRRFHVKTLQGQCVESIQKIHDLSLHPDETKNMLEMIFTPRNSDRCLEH
In words: Aromatase activity in JEG3 choriocarcinoma cells (Protocol 6). The class given is cell-based.

Another assay deals with T2, steroid sulphatase (STS) (Homo sapiens, UniProt P08842).
T2 construct: Intact monolayers of JEG3 cells in triplicate 25 cm^2 tissue culture flasks; host or cells: JEG3 choriocarcinoma cells
T2 sequence (P08842 22-583): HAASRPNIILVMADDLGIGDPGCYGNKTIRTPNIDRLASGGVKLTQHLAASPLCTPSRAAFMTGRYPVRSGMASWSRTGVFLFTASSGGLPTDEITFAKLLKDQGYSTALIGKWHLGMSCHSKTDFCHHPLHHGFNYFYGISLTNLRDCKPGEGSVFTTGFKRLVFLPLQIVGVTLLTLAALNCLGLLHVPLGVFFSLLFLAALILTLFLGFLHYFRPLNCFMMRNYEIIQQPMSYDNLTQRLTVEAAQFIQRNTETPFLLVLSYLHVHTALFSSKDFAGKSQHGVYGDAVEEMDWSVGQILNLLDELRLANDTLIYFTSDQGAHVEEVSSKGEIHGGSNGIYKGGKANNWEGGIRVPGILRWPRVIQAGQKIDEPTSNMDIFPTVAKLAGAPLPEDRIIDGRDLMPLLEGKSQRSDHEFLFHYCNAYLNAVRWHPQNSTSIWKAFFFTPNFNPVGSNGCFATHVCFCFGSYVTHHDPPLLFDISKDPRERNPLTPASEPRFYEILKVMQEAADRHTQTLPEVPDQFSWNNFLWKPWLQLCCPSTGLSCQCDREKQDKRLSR
In words: Inhibition of steroid sulphatase activity in JEG3 cells (Protocol 1). Particulars: for inhibition at 10 µM: JEG-3, read-out: % STS INHIBITION (10 μM). In kind it is cell-based. How it is done: Steroid sulphatase activity is measured in vitro using intact JEG3 choriocarcinoma cells. This cell line may be used to study the control of human breast cancer cell growth.
Cells are maintained in Minimal Essential Medium (MEM) (Flow Laboratories, Irvine, Scotland) containing 20 mM HEPES, 5% foetal bovine serum, 2 mM glutamine, non-essential amino acids and 0.075% sodium bicarbonate. Up to 30 replicate 25 cm2 tissue culture flasks are seeded with approximately 1×10^5 cells/flask using the above medium. Cells are grown to 80% confluency and the medium is changed every third day.
Intact monolayers of JEG3 cells in triplicate 25 cm^2 tissue culture flasks are washed with Earle's Balanced Salt Solution (EBSS from ICN Flow, High Wycombe, U.K.) and incubated for 3-4 hours at 37° C. with 5 pmol (7×10^5 dpm) [6,7-3H]oestrone-3-sulphate (specific activity 60 Ci/mmol from New England Nuclear, Boston, Mass., U.S.A.) in serum-free MEM (2.5 ml) together with oestrone-3-sulphamate (11 concentrations: 0; 1 fM; 0.01 pM; 0.1 pM; 1 pM; 0.01 nM; 0.1 nM; 1 nM; […]). After incubation each flask is cooled and the medium (1 ml) is pipetted into separate tubes containing [14C]oestrone (7×10^3 dpm) (specific activity 97 Ci/mmol from Amersham International Radiochemical Centre, Amersham, U.K.). The mixture is shaken thoroughly for 30 seconds with toluene (5 ml). Experiments have shown that >90% [14C] oestrone and <0.1% [3H]oestrone-3-sulphate is removed from the aqueous phase by this treatment. A portion (2 ml) of the organic phase is removed, evaporated and the 3H and 14C content of the residue determined by scintillation spectrometry. The mass of oestrone-3-sulphate hydrolysed was calculated from the 3H counts obtained (corrected for the volumes of the medium and organic phase used, and for recovery of [14C] oestrone added) and the specific activity of the substrate. Each batch of experiments includes incubations of microsomes prepared from a sulphatase-positive human placenta (positive control) and flasks without cells (to assess apparent non-enzymatic hydrolysis of the substrate). The number of cell nuclei per flask is determined using a Coulter Counter after treating the cell monolayers with Zaponin. One flask in each batch is used to assess cell membrane status and viability using the Trypan Blue exclusion method (Phillips, H. J. (1973) In: Tissue culture and applications, [eds: Kruse, D. F. & Patterson, M. K.]; pp. 406-408; Academic Press, New York).
Results for steroid sulphatase activity are expressed as the mean±1 S.D. of the total product (oestrone+oestradiol) formed during the incubation period (3-4 hours) calculated for […] and, for values showing statistical significance, as a percentage reduction (inhibition) over incubations containing no oestrone-3-sulphamate. Unpaired Student's t-test was used to test the statistical significance of results.

The target in another assay is T3, steroid sulphatase (Homo sapiens, UniProt P08842).
T3 sequence (P08842 22-583): T2 sequence (P08842 22-583)
The note with it: versus EMATE; cited from earlier work.

The next assay has as its system uterus. Particulars: cited from earlier work.
In a further assay the target is T4, E1-STS (Homo sapiens, UniProt P08842).
T4 construct: host or cells: MCF-7 cells
T4 sequence (P08842 22-583): T2 sequence (P08842 22-583)
Particulars: 0.1 nM; cited from earlier work.

Assay [1] has as its target T5, oestrone sulphatase (STS) (Rattus norvegicus, UniProt P15589).
T5 construct: samples of liver tissue were obtained and oestrone sulphatase activity assayed; from tissue; host or cells: rat liver
T5 sequence (P15589 20-577): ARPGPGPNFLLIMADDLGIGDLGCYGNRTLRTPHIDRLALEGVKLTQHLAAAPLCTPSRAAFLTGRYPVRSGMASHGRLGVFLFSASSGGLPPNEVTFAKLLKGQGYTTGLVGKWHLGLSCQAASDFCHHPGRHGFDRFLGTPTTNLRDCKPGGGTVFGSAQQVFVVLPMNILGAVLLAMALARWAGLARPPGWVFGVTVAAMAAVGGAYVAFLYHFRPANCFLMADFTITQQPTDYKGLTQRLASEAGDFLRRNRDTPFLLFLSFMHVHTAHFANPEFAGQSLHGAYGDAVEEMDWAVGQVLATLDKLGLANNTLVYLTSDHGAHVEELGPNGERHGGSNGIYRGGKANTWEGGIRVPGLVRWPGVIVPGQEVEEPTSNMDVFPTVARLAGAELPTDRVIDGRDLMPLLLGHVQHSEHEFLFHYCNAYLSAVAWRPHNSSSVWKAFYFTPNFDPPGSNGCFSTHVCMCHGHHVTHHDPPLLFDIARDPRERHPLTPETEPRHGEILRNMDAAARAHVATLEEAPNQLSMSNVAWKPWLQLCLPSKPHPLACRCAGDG
In words: Inhibition of oestrone sulphatase activity in vivo (Protocol 3). As for the experimental part: The compounds of the present invention may be studied using an animal model, in particular in ovariectomised rats. In this model compounds which are oestrogenic stimulate uterine growth.
At the end of the study samples of liver tissue were obtained and oestrone sulphatase activity assayed using 3H oestrone sulphate as the substrate as previously described (see PCT/GB95/02638).
In vivo data were recorded using the above described aromatase and STS animals assays. The relevant compounds were administered and for each animal both aromatase and STS activities were determined.

The mark [2] stands for this setting: JEG-3; read-out: % AROMATASE INHIBITION (10 μM).
The mark [3] stands for this setting: JEG-3, read-out: % AROMATASE INHIBITION (10 μM).

Procedure for aromatase: Aromatase activity is measured in JEG3 choriocarcinoma cells, obtained from the ATCC. […] Cells are maintained in Minimal Essential Medium (MEM, Flow Laboratories, Irvine, Scotland) containing 20 mM HEPES, 10% foetal bovine serum, 2 mM glutamine, non-essential amino acids and 0.075% sodium bicarbonate. Intact monolayers of JEG3 cells (2.5×10^6 cells) in triplicate 25 cm^2 tissue culture flasks are washed with Earle's Balanced salt solution (EBSS, from ICN Flow, High Wycombe, UK) and incubated with [1β-^3H] androstenedione (2-5 nM, 26 Ci/mmol, New England Nuclear, Boston, Mass., USA) for 30 min with inhibitors over the range of 10 pm-10 μM. During the aromatase reaction, ^3H2O is liberated which can he quantified using a liquid scintillation spectrometer (Beckman-Coulter, High Wycombe, Bucks. UK). […] The number of cell nuclei per flask is determined using a Coulter Counter after treating the cell monolayers with Z aponin.
Unpaired Student's t test was used to test the statistical significance of results. IC50 values were calculated as the concentration of inhibitor required to obtain a 50% inhibition of aromatase activity.

What is called inhibition is the share of the control response that was lost under treatment. As to `CC(C)(C#N)c1cc(CSc2ccc(OS(N)(=O)=O)c(Cl)c2)cc(Cn2cncn2)c1`, the inhibition at 10 µM on aromatase (setting [2]) turned out to be 99.9 ± 0.2%; at steroid sulphatase (STS), 82.3 ± 0.8%. Taken in the same sequence, the figures for `CC(C)(C#N)c1cc(COc2ccc(OS(N)(=O)=O)cc2)cc(Cn2cncn2)c1` were 99.8 ± 0.2% and less than 10%. Regarding `COc1cc2c(cc1OS(N)(=O)=O)CC[C@@H]1[C@@H]2CC[C@]2(C)C(=O)CC[C@@H]12` [2-methoxyoestrone-3-O-sulphamate], the “potency as steroid sulphatase inhibitor relative to EMATE” value on steroid sulphatase is given as “equipotent with EMATE”. Moreover, the oestrogenicity result in the assay with uterus (rat, in vivo) is recorded as “devoid of oestrogenicity”.

For the compound `CC12CCC3c4ccc(OS(N)(=O)=O)cc4CCC3C1CCC2=O` (stereo not drawn) [EMATE, oestrone-3-sulphamate], the “inhibition of E1-STS activity in intact MCF-7 cells” value at E1-STS was “more than 99%”. In addition, in the assay on uterus (rats, oral, versus estradiol), the “oral uterotrophic activity relative to estradiol” value is recorded as 100 times. A word on the IC50: it is the point on the concentration scale where inhibition reaches its midpoint. A lower IC50 goes with greater potency. With `CC(C)(C#N)c1cc(CSc2ccc(O)cc2)cc(Cn2cncn2)c1` [STX1022], at aromatase (JEG3 cells), the midpoint of inhibition, the IC50, lay at 1 nM. On to `CC(C)(C#N)c1cc(CSc2ccc(OS(N)(=O)=O)cc2)cc(Cn2cncn2)c1` [STX1023], for which the half-maximal inhibitory concentration (IC50) is 3.5 nM against aromatase (JEG3 cells) and more than 10000 nM against steroid sulphatase (STS) (JEG3 cells). In assay [1], this compound showed an inhibition at 10 mg/kg of 87%. `N#Cc1ccc(-c2ccc(OS(N)(=O)=O)cc2)cc1Cn1cncn1` [STX1522, Sulfamic acid 4′-cyano-3′-[1,2,4]triazol-1-ylmethyl-biphenyl-4-yl ester]: the inhibition at 10 µM was 98 ± 0.3% on aromatase (setting [3]) and 96.1 ± 0.3% on steroid sulphatase (STS). Take `CC(C)(C#N)c1cc(Cn2cncn2)cc(-c2ccc(OS(N)(=O)=O)cc2)c1` [STX1523, Sulfamic acid 3′-(cyano-dimethyl-methyl)-5′-[1,2,4]triazol-1-ylmethyl-biphenyl-4-yl ester]: the inhibition at 10 µM was 99.7 ± 0.2% on aromatase (setting [2]) and 24.4 ± 3.1% on steroid sulphatase (STS). Take `COC(=O)c1cc(Cn2cncn2)cc(NS(=O)(=O)c2ccc(OS(N)(=O)=O)c(F)c2)c1` [STX1528, 3-(3-Fluoro-4-sulfamoyloxy-benzenesulfonylamino)-5-[1,2,4]triazol-1-ylmethyl-benzoic acid methyl ester]: the inhibition at 10 µM at aromatase (setting [3]) was 83.4 ± 1.3%; on steroid sulphatase (STS) it was less than 10%.

In the case of `N#CC1(c2cc(CSc3ccc(OS(N)(=O)=O)cc3)cc(Cn3cncn3)c2)CCC1` [STX1731, 4-((3-((1H-1,2,4-triazol-1-yl)methyl)-5-(1-cyanocyclobutyl)benzyl)sulfanyl)phenyl sulfamate], the inhibition at 10 µM on aromatase (setting [2]) was 99.5 ± 0.2%; at steroid sulphatase (STS), 21.4 ± 7.9%.

As to `N#CC1(c2cc(CSc3ccc(OS(N)(=O)=O)cc3)cc(Cn3cncn3)c2)CC1` [STX1732, 4-((3-((1H-1,2,4-triazol-1-yl)methyl)-5-(1-cyanocyclopropyl)benzyl)sulfanyl)phenyl sulfamate], the inhibition at 10 µM at aromatase (setting [2]) was 99.8 ± 0.1%; at steroid sulphatase (STS), less than 10%.

Take `N#CC1(c2cc(CSc3ccc(OS(N)(=O)=O)c(Cl)c3)cc(Cn3cncn3)c2)CCC1` [STX1794, 4-((3-((1H-1,2,4-triazol-1-yl)methyl)-5-(1-cyanocyclobutyl)benzyl)sulfanyl)-2-chlorophenyl sulfamate]: the inhibition at 10 µM at aromatase (setting [2]) was found to be 99.7 ± 0.1%; at steroid sulphatase (STS), 75.3 ± 0.6%. In the case of `CC(C)(C#N)c1cc(CSc2ccc(OS(N)(=O)=O)c(Br)c2)cc(Cn2cncn2)c1` [STX1795, 4-((3-((1H-1,2,4-triazol-1-yl)methyl)-5-(2-cyanopropan-2-yl)benzyl)sulfanyl)-2-bromophenyl sulfamate], the inhibition at 10 µM on aromatase (setting [2]) was 100%. With `COC(=O)c1cc(Cn2cncn2)cc(N(C)S(=O)(=O)c2ccc(OS(N)(=O)=O)cc2)c1` [STX1829, 3-[Methyl-(4-sulfamoyloxy-benzenesulfonyl)-amino]-5-[1,2,4]triazol-1-ylmethyl-benzoic acid methyl ester], the inhibition at 10 µM on aromatase (setting [2]) was found to be 99.5 ± 0.2%; at steroid sulphatase (STS), 17.6 ± 4%. For `COC(=O)c1cc(Cn2cncn2)cc(NC(=O)c2ccc(OS(N)(=O)=O)cc2)c1` [STX1830, 3-(4-Sulfamoyloxy-benzoylamino)-5-[1,2,4]triazol-1-ylmethyl-benzoic acid methyl ester], the values for the inhibition at 10 µM at aromatase (setting [3]) and on steroid sulphatase (STS) were 52.7 ± 6.7% and 33.4 ± 5.3%, respectively. In the case of `CC(C)(C#N)c1cc(/C=C/c2ccc(OS(N)(=O)=O)cc2)cc(Cn2cncn2)c1` [STX1833, 4-(3-((1H-1,2,4-triazol-1-yl)methyl)-5-(2-cyanopropan-2-yl)styryl)phenyl sulfamate], at steroid sulphatase (STS), the inhibition at 10 µM was determined as 21.5 ± 4.7%.
